Legend:
Assay type in all cases: cell-based
[1] = molecular target: T1, EGFR exon 20 SVD Ins D770_N771 (Ba/F3 cells) (Homo sapiens, UniProt P00533, INS770SVD); test: Inhibitor activity on EGFR-dependent cell growth (CellTiter-Glo, 72 h), Ba/F3 EGFR exon 20 SVD Ins; details: read-out: BaF3 SVD IC50
T1 construct: expressed in transfected cells; host or cells: Ba/F3 (murine pro-B cells), retroviral transduction, puromycin selection, IL3-independent pool
Method in brief: (§1)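 IC50s derive from a sigmoidal dose–response fit of CellTiter-Glo signal. The signal was normalised between […]-treated cells and cell-free medium. Ba/F3 mutant-EGFR cells, seeded at 400–800/well depending on the line, had 72 h of exposure to a 10-point, 3-fold compound series.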

EGFR L858R (Ba/F3 cells) [2] = molecular target: T2, EGFR L858R (Ba/F3 cells) (Homo sapiens, UniProt P00533, L858R); test: Inhibitor activity on EGFR phosphorylation (pEGFR AlphaLISA, 2 h), Ba/F3 EGFR L858R
T2 construct: expressed in transfected cells; host or cells: Ba/F3 (murine pro-B cells), retroviral transduction, puromycin selection, IL3-independent pool
T2 sequence (P00533 25-1210 L858R): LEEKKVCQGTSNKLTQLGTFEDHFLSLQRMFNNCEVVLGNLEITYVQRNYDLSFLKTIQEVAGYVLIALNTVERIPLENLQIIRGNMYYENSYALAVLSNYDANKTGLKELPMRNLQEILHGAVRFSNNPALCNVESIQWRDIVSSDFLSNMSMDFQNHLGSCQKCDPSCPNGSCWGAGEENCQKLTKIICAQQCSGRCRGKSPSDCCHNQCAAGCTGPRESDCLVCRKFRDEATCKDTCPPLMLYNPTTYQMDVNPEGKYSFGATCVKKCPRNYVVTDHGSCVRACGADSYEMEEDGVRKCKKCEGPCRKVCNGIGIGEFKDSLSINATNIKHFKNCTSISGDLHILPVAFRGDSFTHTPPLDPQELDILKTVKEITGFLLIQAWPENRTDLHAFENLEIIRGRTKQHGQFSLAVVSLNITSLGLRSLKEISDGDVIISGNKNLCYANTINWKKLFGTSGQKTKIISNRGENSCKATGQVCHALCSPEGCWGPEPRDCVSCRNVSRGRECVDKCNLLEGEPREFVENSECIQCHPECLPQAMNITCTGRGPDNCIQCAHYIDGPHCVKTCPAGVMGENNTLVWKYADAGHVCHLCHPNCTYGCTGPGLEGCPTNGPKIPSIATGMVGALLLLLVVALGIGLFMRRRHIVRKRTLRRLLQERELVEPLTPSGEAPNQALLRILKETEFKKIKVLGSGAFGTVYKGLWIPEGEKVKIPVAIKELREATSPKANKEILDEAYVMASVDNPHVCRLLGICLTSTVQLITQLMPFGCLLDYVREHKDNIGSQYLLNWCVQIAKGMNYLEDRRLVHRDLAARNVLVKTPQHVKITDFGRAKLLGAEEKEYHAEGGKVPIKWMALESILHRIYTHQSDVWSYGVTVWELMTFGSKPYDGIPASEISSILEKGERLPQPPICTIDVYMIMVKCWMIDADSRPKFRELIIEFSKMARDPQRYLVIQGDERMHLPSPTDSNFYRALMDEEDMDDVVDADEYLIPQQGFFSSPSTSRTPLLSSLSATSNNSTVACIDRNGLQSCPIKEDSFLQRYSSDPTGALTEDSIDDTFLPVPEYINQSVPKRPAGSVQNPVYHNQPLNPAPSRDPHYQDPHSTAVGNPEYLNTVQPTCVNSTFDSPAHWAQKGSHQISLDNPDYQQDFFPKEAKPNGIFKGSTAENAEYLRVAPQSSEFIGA
Method in brief: (§2)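 IC50 values reflect inhibition of cellular EGFR phosphorylation, measured by AlphaLISA in lysates. Engineered Ba/F3 pools expressing mutant EGFR, selected with puromycin and cultured IL3-free, or CUTO14 cells, were exposed to compound for 2 hours.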

[3] = molecular target: T3, EGFR exon 20 NPG Ins D770_N771 (Ba/F3 cells) (Homo sapiens, UniProt P00533, INS770NPG); test: Inhibitor activity on EGFR phosphorylation (pEGFR AlphaLISA, 2 h), Ba/F3 EGFR exon 20 NPG Ins
T3 construct: expressed in transfected cells; host or cells: Ba/F3 (murine pro-B cells), retroviral transduction, puromycin selection, IL3-independent pool
Method in brief: as §2

[4] = molecular target: T4, EGFR exon 20 FQEA Ins A763_V764 (Ba/F3 cells) (Homo sapiens, UniProt P00533, INS763FQEA); test: Inhibitor activity on EGFR-dependent cell growth (CellTiter-Glo, 72 h), Ba/F3 EGFR exon 20 FQEA Ins; details: read-out: BaF3 FQEA IC50
T4 construct: expressed in transfected cells; host or cells: Ba/F3 (murine pro-B cells), retroviral transduction, puromycin selection, IL3-independent pool
Method in brief: (§3)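 Ba/F3 cells engineered with each EGFR variant were plated (400, 600 or 800 per well for L858R, L858R/C797S, and exon 19del/FQEA). They were exposed for 72 hours to compound serially diluted from a 10 mM DMSO stock. Remaining viable cells were quantified by CellTiter-Glo, and IC50 was curve-fitted.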

[5] = molecular target: T5, EGFR L858R/C797S (Ba/F3 cells) (Homo sapiens, UniProt P00533, C797S/L858R); test: Inhibitor activity on EGFR-dependent cell growth (CellTiter-Glo, 72 h), Ba/F3 EGFR L858R/C797S; details: read-out: BaF3 L858R/C797S IC50
T5 construct: expressed in transfected cells; host or cells: Ba/F3 (murine pro-B cells), retroviral transduction, puromycin selection, IL3-independent pool
Method in brief: as §3

[6] = molecular target: T5, EGFR L858R/C797S (Ba/F3 cells); test: Inhibitor activity on EGFR phosphorylation (pEGFR AlphaLISA, 2 h), Ba/F3 EGFR L858R/C797S
Method in brief: as §2

[7] = molecular target: T6, EGFR exon 20 ASV Ins V769_D770 (Ba/F3 cells) (Homo sapiens, UniProt P00533, INS769ASV); test: Inhibitor activity on EGFR phosphorylation (pEGFR AlphaLISA, 2 h), Ba/F3 EGFR exon 20 ASV Ins; details: EGFR phosphorylation, AlphaLISA, 2 hours; read-out: ASV IC50 (pEGFR)
T6 construct: expressed in transfected cells; host or cells: Ba/F3 (murine pro-B cells), retroviral transduction, puromycin selection, IL3-independent pool
T6 sequence (P00533 with tags, fused parts or gaps INS769ASV): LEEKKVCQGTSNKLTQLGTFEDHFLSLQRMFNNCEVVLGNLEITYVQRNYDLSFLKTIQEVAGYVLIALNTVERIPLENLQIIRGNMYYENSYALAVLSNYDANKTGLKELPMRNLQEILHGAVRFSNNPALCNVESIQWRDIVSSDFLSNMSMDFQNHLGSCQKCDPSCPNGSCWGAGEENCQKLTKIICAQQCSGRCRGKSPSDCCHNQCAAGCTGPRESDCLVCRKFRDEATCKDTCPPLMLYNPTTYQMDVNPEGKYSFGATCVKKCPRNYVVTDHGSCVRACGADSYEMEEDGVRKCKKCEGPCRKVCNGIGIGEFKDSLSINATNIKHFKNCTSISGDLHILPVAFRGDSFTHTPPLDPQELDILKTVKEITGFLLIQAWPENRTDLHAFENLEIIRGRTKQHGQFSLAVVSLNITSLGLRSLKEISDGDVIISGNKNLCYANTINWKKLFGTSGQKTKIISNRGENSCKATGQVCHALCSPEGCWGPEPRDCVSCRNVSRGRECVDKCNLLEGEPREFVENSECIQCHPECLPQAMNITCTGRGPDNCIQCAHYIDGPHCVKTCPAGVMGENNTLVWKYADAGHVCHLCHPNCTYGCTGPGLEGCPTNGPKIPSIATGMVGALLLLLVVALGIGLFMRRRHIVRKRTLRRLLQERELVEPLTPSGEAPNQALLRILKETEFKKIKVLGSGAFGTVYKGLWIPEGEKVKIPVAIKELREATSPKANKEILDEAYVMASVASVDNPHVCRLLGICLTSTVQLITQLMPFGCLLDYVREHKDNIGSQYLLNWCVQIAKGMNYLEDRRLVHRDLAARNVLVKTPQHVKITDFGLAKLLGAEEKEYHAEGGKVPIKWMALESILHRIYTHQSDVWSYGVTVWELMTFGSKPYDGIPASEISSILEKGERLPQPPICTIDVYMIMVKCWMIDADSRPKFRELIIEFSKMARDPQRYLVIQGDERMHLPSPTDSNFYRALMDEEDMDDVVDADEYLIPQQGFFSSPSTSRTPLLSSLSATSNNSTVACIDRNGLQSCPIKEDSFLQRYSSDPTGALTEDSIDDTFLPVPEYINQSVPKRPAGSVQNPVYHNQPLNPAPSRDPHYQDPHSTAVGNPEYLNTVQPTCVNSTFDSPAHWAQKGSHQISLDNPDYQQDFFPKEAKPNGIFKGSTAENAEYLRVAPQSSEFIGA
Method in brief: as §2

[8] = molecular target: T3, EGFR exon 20 NPG Ins D770_N771 (Ba/F3 cells); test: Inhibitor activity on EGFR-dependent cell growth (CellTiter-Glo, 72 h), Ba/F3 EGFR exon 20 NPG Ins; details: read-out: BaF3 NPG IC50
Method in brief: as §1

[9] = molecular target: T7, EGFR exon 19del (Ba/F3 cells) (Homo sapiens, UniProt P00533); test: Inhibitor activity on EGFR-dependent cell growth (CellTiter-Glo, 72 h), Ba/F3 EGFR exon 19del; details: Ba/F3 EGFR exon 19del cell growth, read-out: BaF3 Del19 IC50
Method in brief: as §3

[10] = molecular target: T6, EGFR exon 20 ASV Ins V769_D770 (Ba/F3 cells); test: Inhibitor activity on EGFR-dependent cell growth (CellTiter-Glo, 72 h), Ba/F3 EGFR exon 20 ASV Ins; details: read-out: BaF3 ASV IC50
Method in brief: as §1

EGFR L858R (Ba/F3 cells) [11] = molecular target: T2, EGFR L858R (Ba/F3 cells); test: Inhibitor activity on EGFR-dependent cell growth (CellTiter-Glo, 72 h), Ba/F3 EGFR L858R; details: read-out: BaF3 L858R IC50
Method in brief: as §3

EGFR WT (Ba/F3 cells) = molecular target: T8, EGFR WT (Ba/F3 cells) (Homo sapiens, UniProt P00533); test: Inhibitor activity on EGFR-dependent cell growth (CellTiter-Glo, 72 h), Ba/F3 EGFR WT; details: read-out: BaF3 WT IC50
T8 construct: expressed in transfected cells; host or cells: Ba/F3 (murine pro-B cells), retroviral transduction, puromycin selection, maintained with EGF
T8 sequence (P00533 25-1210): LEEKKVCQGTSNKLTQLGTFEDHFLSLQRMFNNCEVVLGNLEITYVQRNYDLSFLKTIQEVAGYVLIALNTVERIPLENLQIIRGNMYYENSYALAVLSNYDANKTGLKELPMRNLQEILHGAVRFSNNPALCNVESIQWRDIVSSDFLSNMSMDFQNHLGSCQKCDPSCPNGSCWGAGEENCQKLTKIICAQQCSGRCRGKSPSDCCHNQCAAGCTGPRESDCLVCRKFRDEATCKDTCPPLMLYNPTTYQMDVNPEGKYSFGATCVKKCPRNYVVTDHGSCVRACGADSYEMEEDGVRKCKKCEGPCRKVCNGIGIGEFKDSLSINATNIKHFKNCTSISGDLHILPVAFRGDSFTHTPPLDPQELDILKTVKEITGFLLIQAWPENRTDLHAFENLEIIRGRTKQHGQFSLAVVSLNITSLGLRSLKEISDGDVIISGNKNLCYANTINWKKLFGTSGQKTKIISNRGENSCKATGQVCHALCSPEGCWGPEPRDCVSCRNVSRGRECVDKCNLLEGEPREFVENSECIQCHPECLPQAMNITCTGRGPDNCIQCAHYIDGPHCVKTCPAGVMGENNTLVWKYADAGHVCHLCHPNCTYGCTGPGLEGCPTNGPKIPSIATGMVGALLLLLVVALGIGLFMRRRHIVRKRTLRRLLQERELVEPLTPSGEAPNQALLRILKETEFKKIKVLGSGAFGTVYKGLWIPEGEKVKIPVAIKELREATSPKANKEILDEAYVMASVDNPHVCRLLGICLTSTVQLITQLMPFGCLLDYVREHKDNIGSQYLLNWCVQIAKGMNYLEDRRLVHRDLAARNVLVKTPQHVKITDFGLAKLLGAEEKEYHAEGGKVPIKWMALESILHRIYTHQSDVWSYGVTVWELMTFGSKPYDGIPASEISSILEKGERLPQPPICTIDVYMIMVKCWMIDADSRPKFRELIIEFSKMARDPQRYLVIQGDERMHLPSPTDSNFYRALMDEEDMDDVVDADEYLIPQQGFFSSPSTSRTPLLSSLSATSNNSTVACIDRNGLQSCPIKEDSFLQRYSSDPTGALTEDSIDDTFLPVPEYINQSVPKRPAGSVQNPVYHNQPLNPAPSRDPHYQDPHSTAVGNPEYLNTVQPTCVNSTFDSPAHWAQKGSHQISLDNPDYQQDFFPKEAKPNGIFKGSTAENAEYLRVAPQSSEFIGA
Method in brief: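 This growth assay used Ba/F3 cells that depend on wild-type EGFR and are kept in EGF without IL3. Compounds were made up as 10 mM DMSO stocks and diluted 3-fold over 10 points. 120 nL went onto 600 cells/well. After 72 hours, 40 μL CellTiter-Glo was added and luminescence read on EnVision after 30 min.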

[12] = molecular target: T7, EGFR exon 19del (Ba/F3 cells); test: Inhibitor activity on EGFR phosphorylation (pEGFR AlphaLISA, 2 h), Ba/F3 EGFR exon 19del; details: read-out: Del19 IC50 (pEGFR)
Method in brief: as §2

[13] = molecular target: T1, EGFR exon 20 SVD Ins D770_N771 (Ba/F3 cells); test: Inhibitor activity on EGFR phosphorylation (pEGFR AlphaLISA, 2 h), Ba/F3 EGFR exon 20 SVD Ins
Source text: Example B. Inhibitor Activity on EGFR phosphorylation (pEGFR)
EGFR mutant Ba/F3 cells were generated by transduction with retrovirus containing vectors expressing EGFR L858R, EGFR exon 19del, EGFR L858R/C797S, EGFR exon 20 NPG Ins D770_N771, EGFR exon 20 ASV Ins V769_D770, or EGFR exon 20 SVD Ins D770_N771 genes along with a puromycin selection marker. Transduced cells are selected with puromycin for 7 days and are then be transferred into culture media without Interleukin 3 (IL3). Surviving cells are confirmed to express EGFR by Western blot and maintained as a pool. CUTO14 cells were obtained from Dr. Robert C. Doebele at the University of Colorado. The IC50 date are included in Table 6 and Table 7.
1.1 Cells are harvested from flask into cell culture medium and the cell number counted.
1.2 Cells are diluted with culture medium to the desired density and 40 μL of cell suspension is added into each well of 384-well cell culture plate and the seeding density is 50K cells/well (Ba/F3) or 12.5K cells/well (CUTO14).
2 Compound Preparation and Treatment
2.1 Test compounds are dissolved to 10 mM in a DMSO stock solution. 45 μL of stock solution is transferred to a 384 polypropylene plate (pp-plate). Perform 3-fold, 10-point dilution via transferring 15 μL compound into 30 μL DMSO using a TECAN (EVO200) liquid handler.
2.2 Spin plates at room temperature at 1,000 RPM for 1 minute.
2.3 Transfer 5 nL of diluted compound from compound source plate into the cell plate.
2.4 After compound treatment for 2 hours, perform pEGFR detection by AlphaLISA for compound treatment plates as described in “Detection” section.
3 Detection by pEGFR AlphaLISA (Perkin-Elmer)
3.1 Plates are removed from incubators and equilibrated at room temperature for 10 minutes, and media was removed
3.2 10 μL of lysis buffer is added and plates shaken at 600 rpm for 1 hr.
3.3 Prepare acceptor mix just before use and dispense 5 μL of acceptor mix to all the wells. Shake 350 rpm for Ihr in the dark
3.4 Prepare donor mix under low light conditions prior to use. Dispense 5 μL of donor mix to all the wells. Mix well on the shaker, seal and wrap in aluminum foil and incubate 1.5 hrs at room temperature in the dark
3.5 Transfer 18.5 μL mixture to OptiPlate 384, and read using an Envision. The IC50 date were included in Table 6 and Table 7.

EGFR (CUTO14 cells) = EGFR (CUTO14 cells) (Homo sapiens, UniProt P00533); test: Inhibitor activity on EGFR phosphorylation (pEGFR AlphaLISA, 2 h), CUTO14 cells
Chain of EGFR (CUTO14 cells) (P00533 with tags, fused parts or gaps DUP767-769): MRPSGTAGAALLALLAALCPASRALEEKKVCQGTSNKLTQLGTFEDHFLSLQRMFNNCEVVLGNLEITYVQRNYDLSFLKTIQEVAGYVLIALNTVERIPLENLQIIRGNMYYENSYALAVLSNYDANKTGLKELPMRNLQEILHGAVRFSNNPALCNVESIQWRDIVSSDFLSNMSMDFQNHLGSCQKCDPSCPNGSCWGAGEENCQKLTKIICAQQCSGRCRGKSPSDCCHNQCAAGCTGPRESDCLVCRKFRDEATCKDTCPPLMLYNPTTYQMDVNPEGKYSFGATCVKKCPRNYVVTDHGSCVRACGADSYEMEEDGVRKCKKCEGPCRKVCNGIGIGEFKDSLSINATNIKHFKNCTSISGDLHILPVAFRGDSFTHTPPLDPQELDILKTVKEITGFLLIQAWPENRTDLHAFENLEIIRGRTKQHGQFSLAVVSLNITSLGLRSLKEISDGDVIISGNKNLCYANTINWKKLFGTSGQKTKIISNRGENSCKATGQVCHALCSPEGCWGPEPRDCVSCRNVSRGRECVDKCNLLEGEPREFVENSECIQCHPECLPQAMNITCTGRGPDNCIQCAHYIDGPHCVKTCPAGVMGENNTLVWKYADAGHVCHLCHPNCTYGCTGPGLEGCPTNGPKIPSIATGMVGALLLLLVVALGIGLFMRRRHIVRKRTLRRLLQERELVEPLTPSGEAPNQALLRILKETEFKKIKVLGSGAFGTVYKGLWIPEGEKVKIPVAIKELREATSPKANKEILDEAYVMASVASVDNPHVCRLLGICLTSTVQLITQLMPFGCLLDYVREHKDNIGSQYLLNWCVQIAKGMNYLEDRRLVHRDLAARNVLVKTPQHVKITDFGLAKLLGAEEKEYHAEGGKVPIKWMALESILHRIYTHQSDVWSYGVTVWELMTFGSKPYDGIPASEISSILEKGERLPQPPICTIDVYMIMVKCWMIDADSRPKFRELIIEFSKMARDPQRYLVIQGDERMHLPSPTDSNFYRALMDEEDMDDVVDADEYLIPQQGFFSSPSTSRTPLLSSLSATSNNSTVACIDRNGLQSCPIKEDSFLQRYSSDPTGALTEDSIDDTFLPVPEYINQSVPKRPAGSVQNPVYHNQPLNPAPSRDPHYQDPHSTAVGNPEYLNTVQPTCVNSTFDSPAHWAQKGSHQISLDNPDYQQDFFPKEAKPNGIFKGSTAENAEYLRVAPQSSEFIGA
Method in brief: as §2

Row | Structure (SMILES) | IC50 [1] [nM] | IC50 (EGFR L858R (Ba/F3 cells) [2]) [nM] | IC50 [3] [nM] | IC50 [4] [nM] | IC50 [5] [nM] | IC50 [6] [nM] | IC50 [7] [nM] | IC50 [8] [nM] | IC50 [9] [nM] | IC50 [10] [nM] | IC50 (EGFR L858R (Ba/F3 cells) [11]) [nM] | IC50 (EGFR WT (Ba/F3 cells)) [nM] | IC50 [12] [nM] | IC50 [13] [nM] | IC50 (EGFR (CUTO14 cells)) [nM]
1 | COc1c(F)cccc1Nc1c(-c2ccncc2F)[nH]c2c1C(=O)NCC2C[C@@H]1COCCO1 (single isomer, unassigned) [Compound 566] | < 100 | < 100 | < 100 | < 100 | < 100 | < 100 | < 100 | < 100 | < 100 | < 100 | < 100 | < 100 | < 100 | < 100 | < 100
2 | COc1c(F)cccc1Nc1c(-c2ccncc2F)[nH]c2c1C(=O)NC[C@@H]2CC1COCCO1 (stereo in doubt) [Compound 525, (7S)-7-[(2R)-1,4-dioxan-2-ylmethyl]-3-[(3-fluoro-2-methoxyphenyl)amino]-2-(3-fluoropyridin-4-yl)-1H,5H,6H,7H-pyrrolo[3,2-c]pyridin-4-one] | < 100 | < 100 | < 100 | < 100 | < 100 | < 100 | < 100 | < 100 | < 100 | < 100 | < 100 | 100 to 1000 | < 100 | < 100 | < 100
3 | COCC[C@@H]1CNC(=O)c2c1[nH]c(-c1ccncc1F)c2Nc1cccc(F)c1OC [421b] | < 100 | < 100 | < 100 | < 100 | < 100 | < 100 | < 100 | < 100 | < 100 | < 100 | < 100 | 100 to 1000 | < 100 | < 100 | < 100
4 | COCC[C@@H]1CNC(=O)c2c1[nH]c(-c1ccncn1)c2Nc1cccc(Cl)c1OC [445a] | < 100 | < 100 | < 100 | < 100 | < 100 | < 100 | < 100 | < 100 | < 100 | < 100 | < 100 | 100 to 1000 | < 100 | < 100 | < 100
5 | COCC[C@H]1CNC(=O)c2c1[nH]c(-c1ccnc(C)n1)c2Nc1cccc(Cl)c1OC [463b] | < 100 | < 100 | < 100 | < 100 | < 100 | < 100 | < 100 | < 100 | < 100 | < 100 | < 100 | 100 to 1000 | < 100 | < 100 | < 100
6 | COc1c(Cl)cccc1Nc1c(-c2ccncc2F)[nH]c2c1C(=O)NC[C@@H]2C[C@@H]1COCCO1 [Compound 482, (S)-7-(((R)-1,4-dioxan-2-yl)methyl)-3-((3-chloro-2-methoxyphenyl)amino)-2-(3-fluoropyridin-4-yl)-1,5,6,7-tetrahydro-4H-pyrrolo[3,2-c]pyridin-4-one] | – | < 100 | < 100 | < 100 | < 100 | < 100 | < 100 | < 100 | < 100 | – | < 100 | < 100 | < 100 | < 100 | < 100
7 | COCC[C@H]1CNC(=O)c2c1[nH]c(-c1ccncc1F)c2Nc1cccc(Cl)c1OC [Compound 747] | – | < 100 | < 100 | < 100 | < 100 | < 100 | < 100 | < 100 | < 100 | – | < 100 | < 100 | < 100 | < 100 | < 100
8 | COc1c(Cl)cccc1Nc1c(-c2ccnc3ccoc23)[nH]c2c1C(=O)NCC2 [compound 750, 3-[(3-chloro-2-methoxyphenyl)amino]-2-[furo[3,2-b]pyridin-7-yl]-1H,5H,6H,7H-pyrrolo[3,2-c]pyridin-4-one] | – | < 100 | < 100 | < 100 | < 100 | < 100 | < 100 | < 100 | < 100 | – | < 100 | 100 to 1000 | < 100 | < 100 | < 100
9 | COc1c(Cl)cccc1Nc1c(-c2ccncc2F)[nH]c2c1C(=O)NC[C@@]21CCN(CC(F)(F)F)C1 [compound 817] | < 100 | < 100 | < 100 | < 100 | < 100 | < 100 | < 100 | < 100 | < 100 | < 100 | < 100 | 100 to 1000 | < 100 | < 100 | < 100
